Values joined by “and” are separate entries in the source; they are usually repeats but may differ in a detail not shown here. Equal values may be shown once.
Columns and labels:
[1] = Fertility, embryo and fetal developmental toxicity test; parameters: species or system SD rats; details: SD, rat, in vivo, intravenous
Protocol: Male SD rats were administered intravenous injections of Purinostat Mesylate at doses of 3, 10, and 20 mg/kg every two days from 4 weeks prior to mating until the end of mating. Female SD rats received the same treatment from 2 weeks prior to mating until day 7 of pregnancy. The no observed adverse effect level (NOAEL) for males was less than 3 mg/kg, while for females it was 20 mg/kg. The NOAEL for reproductive toxicity in both male and female rats was 3 mg/kg, and the NOAEL for early embryonic development was less than 3 mg/kg.

r/r MM and r/r lymphoma = experiment: Phase I trial NCT05526313, efficacy assessment; format: in vivo, human
Protocol: This open-label, non-randomized, first-in-human phase I dose-escalation two-center trial enrolled adult patients with lymphoma or MM who were refractory or relapsed after ≥1 prior regimen (NCT05526313). All patients provided written informed consent, and the study was conducted in accordance with the principles of the Declaration of Helsinki. PM was administered by 30-min intravenous infusion in a standard 3 + 3 dose escalation design, starting from 1.2, 2.4, 4.0, 6.0, 8.4, 11.2, up to 15 mg/m^2. This trial was conducted in three sequential stages as follows: the first stage as a single dose (day 1), the second stage as multiple doses (day 8, 11, and 15), and the third stage as extended doses (day 1, 4, 8, 11 in 21-day cycles). The decision to proceed to the third stage is based on the patient’s continued benefit from the previous two stages. Patients continued to receive PM until unacceptable toxicity or disease progression. Between August 2020 and August 2022, 11 r/r MM and 18 r/r lymphoma patients were enrolled. The cutoff date for the assessment of safety and efficacy was July 7, 2023. The incidence and severity of adverse events were assessed according to the National Cancer Institute Common Terminology Criteria for Adverse Events (CTCAE 5.0). The efficacy of PM in patients with r/r MM was evaluated according to the standards of the Chinese Multiple Myeloma Diagnosis and Treatment Guidelines (2017 Revised) and the 2016 International Myeloma Working Group (IMWG). Minimal response (MR) (only for the evaluation of r/r MM): serum M protein decreased by 25–49% and 24 h light chain decreased by 50–89%. If soft tissue plasmacytoma exists at baseline, the sum of the product of perpendicular diameters (SPD) of measurable lesions is required to be reduced by ≥50%.[56],[57] The number and size of osteolytic lesions have not increased (compression fractures are allowed). […] Detailed methods for pharmacodynamic studies, safety and tolerability assessments (including the definition of DLT and maximum tolerated dose), and efficacy assessment are provided in Supplementary Methods.
Disease response of patients was measured according to the Chinese Multiple Myeloma Diagnosis and Treatment Guidelines (2017 Revised) and the 2016 International Myeloma Working Group (IMWG) for multiple myeloma or the International Working Group consensus response evaluation criteria in lymphoma (RECIL 2017). Patients need to be evaluated for efficacy after completing the cycle 1 of PM treatment (single and multiple dosing phases, day 25) and every 2 treatment cycles during the extended dosing phase. For r/r multiple myeloma, the efficacy was evaluated by quantification of M protein immunofixation electrophoresis of serum and urine. For r/r lymphoma, if sites with available positron emission tomography (PET) imaging, tumor volume was quantified by PET computed tomography (CT), and if sites where PET was not available, CT or magnetic resonance imaging was used. Objective response rate (ORR)=CR+PR+MR, and disease control rate (DCR)=CR+PR+MR+SD, and calculate their 95% confidence interval using the Clopper-Pearson method. The efficacy assessable population was determined to include all patients who were administered at least one dose of PM and had undergone at least one tumor assessment after the baseline.

OPM2 = experiment: Cell viability CCK8; format: cell-based; details: Homo sapiens, OPM-2; OPM2, 72 h; no unit in table; read-out: Antiproliferative activity IC50
Protocol: (§1) PM, panobinostat, Pom and DXM were dissolved in DMSO and stored at -20°C freezer. Cells were seeded at a density of 1.0-3.0 × 10^4 cells/well/100 μL in 96-well plates. After overnight incubation, cells were treated with the drug-containing culture medium for 24, 48, or 72 hours, and cell viability was measured using CCK8 (Oriscience, Chengdu, China) at the indicated time points with Biotek Cytation 3 at a wavelength of 450 nm. The IC50 values were calculated using GraphPad Prism 9.4.1, and Calcusyn 2.0 software was employed to calculate the CI values.

AMO1 = experiment: Cell viability CCK8; format: cell-based; details: Homo sapiens; AMO1, 72 h; no unit in table; read-out: Antiproliferative activity IC50
Protocol: as §1

RPMI-8226R = experiment: Cell viability CCK8; format: cell-based; details: Homo sapiens, 72 h, no unit in table, read-out: Antiproliferative activity IC50
Protocol: as §1

RL = experiment: Cell viability CCK8; format: cell-based; details: Homo sapiens, 72 h, no unit in table, read-out: Antiproliferative activity IC50
Protocol: as §1

NKYS = experiment: Cell viability CCK8; format: cell-based; details: Homo sapiens, 72 h, no unit in table, read-out: Antiproliferative activity IC50
Protocol: as §1

MM1S = experiment: Cell viability CCK8; format: cell-based; details: Homo sapiens, MM1.S, 72 h, no unit in table (b9: nM), read-out: Antiproliferative activity IC50
Protocol: as §1

Karpas299 = experiment: Cell viability CCK8; format: cell-based; details: Homo sapiens, KARPAS-299; Karpas299, 72 h; no unit in table; read-out: Antiproliferative activity IC50
Protocol: as §1

Daudi = experiment: Cell viability CCK8; format: cell-based; details: Homo sapiens, 72 h, no unit in table, read-out: Antiproliferative activity IC50
Protocol: as §1

RPMI-8226 = experiment: Cell viability CCK8; format: cell-based; details: Homo sapiens; RPMI-8226, 72 h; no unit in table; read-out: Antiproliferative activity IC50
Protocol: as §1

Ramos = experiment: Cell viability CCK8; format: cell-based; details: Homo sapiens, 72 h, no unit in table, read-out: Antiproliferative activity IC50
Protocol: as §1

[2] = by row: r4 MM, r5 DLBCL, r6 FL, r7 other lymphomas, r8 total

Structure (SMILES): CN(Cc1nc2c(N3CCOCC3)nc(-c3ccc(N)cc3)nc2n1C)c1ncc(C(=O)NO)cn1.CS(=O)(=O)O [PM, 2-(((2-(4-Aminophenyl)-9-methyl-6-(4-morpholinyl)-9H-purine-8-yl)methyl)methylamino)-N-hydroxy-5-pyrimidine-carboxamide Mesylate]
- NOAEL [1]: < 3 mg/kg
- NOAEL ([1]; both sexes): 3 mg/kg
- NOAEL ([1]; female): 20 mg/kg
- NOAEL ([1]; male): < 3 mg/kg
- DCR (r/r MM and r/r lymphoma; DLBCL, n=11): 72.7%
- duration of PR (r/r MM and r/r lymphoma; FL patient with multiple extranodal lesions): more than 10 cycles
- DCR (r/r MM and r/r lymphoma; FL, n=3): 66.7%
- ORR (r/r MM and r/r lymphoma; FL, n=3): 66.7%
- duration of MR (r/r MM and r/r lymphoma; Patient No.10, 6.0 mg/m²): more than 6 months
- M-protein after 2 cycles (r/r MM and r/r lymphoma; Patient No.10, 6.0 mg/m², baseline 26.290 g/L): 15.998 g/L
- Best Response CR (r/r MM and r/r lymphoma; [2]): 6(54.5) n (%) and 6(20.7) n (%)
- Best Response MR (r/r MM and r/r lymphoma; [2]): 1(33.3) n (%)
- Best Response PD (r/r MM and r/r lymphoma; [2]): 1(33.3) n (%)
- Best Response PR (r/r MM and r/r lymphoma; [2]): 1(33.3) n (%)
- Best Response SD (r/r MM and r/r lymphoma; [2]): 10(34.5) n (%)
- DCR (r/r MM and r/r lymphoma; other lymphomas, n=4): 100%
- ORR (r/r MM and r/r lymphoma; other lymphomas, n=4): 50.0%
- duration of CR (r/r MM and r/r lymphoma; r/r DEL DLBCL patient with MYD88 mutation): over 18 months
- duration of CR (r/r MM and r/r lymphoma; r/r DEL patient No.26): more than 1.5 years
- Response (%): CR (r/r MM and r/r lymphoma; r/r DLBCL): 54.5%
- ORR (r/r MM and r/r lymphoma; r/r DLBCL, n=11): 63.6%
- number of complete responses (r/r MM and r/r lymphoma; r/r DLBCL, n=11): 6
- number of partial responses (r/r MM and r/r lymphoma; r/r DLBCL, n=11): 1
- DCR (r/r MM and r/r lymphoma; r/r MM, n=11): 72.7%
- ORR (r/r MM and r/r lymphoma; r/r MM, n=11, 1.2–8.4 mg/m^2): 9.1% and 9.09%
- ORR (r/r MM and r/r lymphoma; r/r lymphoma, n=18, 4.0–15.0 mg/m^2): 61.1%
- DCR (r/r MM and r/r lymphoma; total, n=29): 75.9%
- ORR (r/r MM and r/r lymphoma; total, n=29): 41.4%
- IC50 (OPM2): 1.78 ± 0.13 nM
- IC50 (AMO1): 1.78 ± 0.14 nM
- IC50 (RPMI-8226R): 2.02 ± 0.3 nM
- IC50 (RL): 1.27 ± 0.14 nM
- IC50 (NKYS): 0.77 ± 0.07 nM
- IC50 (MM1S): 0.47 ± 0.02 nM
- IC50 (Karpas299): 1.16 ± 0.14 nM
- IC50 (Daudi): 0.73 ± 0.51 nM
- IC50 (RPMI-8226): 2.42 ± 0.4 nM
- IC50 (Ramos): 1.24 ± 0.47 nM

From paper PMC12198407, “Preclinical and first-in-human of purinostat mesylate, a novel selective HDAC I/IIb inhibitor, in relapsed/refractory multiple myeloma and lymphoma” (Signal Transduction and Targeted Therapy, 2025)
